From ChEMBL document CHEMBL3046004, “Esterase-mediated resistance to pyrethroids in field populations of Helicoverpa armigera (Lepidoptera: Noctuidae) from Central Africa” (2009) come the findings set out here.

What all share (type): functional
The subject of test [1] is Helicoverpa armigera. The test is described as follows: Insecticidal activity against fourth-instar larval stage of Helicoverpa armigera field strain Pitoa isolated from maize plant assessed as mortality applied topically onto thorax measured after 48 hr.
Test [2] has as its system Helicoverpa armigera. The test is described as follows: Insecticidal activity against fourth-instar larval stage of Helicoverpa armigera Foumbot isolated from tomato plant assessed as mortality applied topically onto thorax measured after 48 hr.
In test [3] the test system is Helicoverpa armigera. The test is described as follows: Insecticidal activity against fourth-instar larval stage of Helicoverpa armigera field strain Home isolated from cotton plant assessed as mortality applied topically onto thorax measured after 48 hr.
In test [4] the test system is Helicoverpa armigera. The test is described as follows: Synergism factor, ratio of LD50 for fourth-instar larval stage of pyrethroid-resistance Helicoverpa armigera field strain Pitoa isolated from tomato plant to LD50 for fourth-instar larval stage of Helicoverpa armigera field strain Pitoa isolated from tomato plant in presence of 10 microg/larva cytochrome P450 monooxygenase inhibitor, PBO.

Test [5] deals with Helicoverpa armigera. The test is described as follows: Insecticidal activity against fourth-instar larval stage of Helicoverpa armigera field strain Pitoa isolated from tomato plant assessed as mortality applied topically onto thorax 30 min after 10 microg/larva cytochrome P450 monooxygenase inhibitor, PBO application measured after 48 hr.
Test [6] has as its system Helicoverpa armigera. The test is described as follows: Synergism factor, ratio of LD50 for fourth-instar larval stage of pyrethroid-resistance Helicoverpa armigera laboratory strain GS-RR08 to LD50 for fourth-instar larval stage of pyrethroid-resistance Helicoverpa armigera laboratory strain GS-RR08 in presence of 3.2 microg/larva propenofos.
In test [7] the test system is Helicoverpa armigera. The test is described as follows: Insecticidal activity against fourth-instar larval stage of pyrethroid-resistance Helicoverpa armigera laboratory strain GS-RR08 assessed as mortality applied topically onto thorax measured after 48 hr in presence of 3.2 microg/larva […].
Test [8] has as its system Helicoverpa armigera. The test is described as follows: Insecticidal activity against fourth-instar larval stage of Helicoverpa armigera field strain Home isolated from cotton plant assessed as mortality applied topically onto thorax 30 min after 10 microg/larva cytochrome P450 monooxygenase inhibitor, PBO application measured after 48 hr.
Test [9] concerns Helicoverpa armigera. The test is described as follows: Insecticidal activity against fourth-instar larval stage of Helicoverpa armigera field strain Ngong isolated from cotton plant assessed as mortality applied topically onto thorax 30 min after 10 microg/larva cytochrome P450 monooxygenase inhibitor, PBO application measured after 48 hr.
Test [10] concerns Helicoverpa armigera. The test is described as follows: Insecticidal activity against fourth-instar larval stage of Helicoverpa armigera field strain Sorga isolated from cotton plant assessed as mortality applied topically onto thorax measured after 48 hr.
Test [11] has as its system Helicoverpa armigera. The test is described as follows: Insecticidal activity against fourth-instar larval stage of pyrethroid-resistance Helicoverpa armigera laboratory strain GS-RR08 assessed as mortality applied topically onto thorax measured after 48 hr.

As to `CC1(C)C(C=C(Cl)Cl)C1C(=O)OC(C#N)c1cccc(Oc2ccccc2)c1` (stereo not drawn) [ALPHA-CYPERMETHRIN], the LD50 in the test on Helicoverpa armigera [1] is 239.9 microgAi/g; with Helicoverpa armigera [2], 81.6 microgAi/g; with Helicoverpa armigera [3], 43.9 microgAi/g; in the test on Helicoverpa armigera [5], 53.2 microgAi/g; in the test on Helicoverpa armigera [7] it was 226.6 microgAi/g; with Helicoverpa armigera [8], 21.3 microgAi/g. Besides, the LD50 with Helicoverpa armigera [9] is 3 microgAi/g; with Helicoverpa armigera [10], 57.7 microgAi/g; with Helicoverpa armigera [11], 832.5 microgAi/g. The Ratio in the test on Helicoverpa armigera [4] is 5; in the test with Helicoverpa armigera [6], 3.7.
